Assay results published in patent US10689378B2, “Triazolopyridine compounds and uses thereof” (Novartis AG, priority 2016, dated 2020).

How the values were obtained:
[1] = target: wild type PRC2 (wtPRC2) complex (Homo sapiens, UniProt O75530); assay: EED LC-MS assay (SAH production by PRC2); type: biochemical; settings: PRC2 LC-MS assay; read-out: (b) IC50 EED LC-MS Qualified
Procedure, shortened: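 LC-MS/MS readout of SAH (d4-SAH standard) after TFA quench gives PRC2 activity, normalized to controls and fitted to dose-response for IC50. Reaction: 12 nM EZH2/SUZ12/EED/Rbap48/AEBP complex, 1 μM SAM, 1.5 μM H3[21-44] peptide, 120 min rt, 20 min compound preincubation.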

[2] = system: H3K27 methylation in G401 cell; assay: ELISA (H3K27 methylation) assay in G401 cells; type: cell-based, human; settings: Homo sapiens, G-401, H3K27 methylation ELISA, read-out: (c) IC50 ELISA Qualified
Procedure, shortened: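 IC50 from dose-response fit of percent inhibition relative to DMSO, using H3K27me3/me2 ELISA signal (ECL) normalized to histone H3. Histones HCl-extracted after 48 h compound exposure of G401 cells at up to 20 μM, 8- or 12-point 3-fold series.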

[3] = target: T1, EED (1-441)-His protein (Homo sapiens, UniProt O75530); assay: EED-H3K27Me3 peptide competition binding assay by AlphaScreen; settings: EED-H3K27Me3 peptide competition, AlphaScreen; read-out: (a) IC50 EED Alphascreen binding Qualified
T1 construct: 30 nM EED (1-441)-His protein
T1 sequence (O75530 whole entry): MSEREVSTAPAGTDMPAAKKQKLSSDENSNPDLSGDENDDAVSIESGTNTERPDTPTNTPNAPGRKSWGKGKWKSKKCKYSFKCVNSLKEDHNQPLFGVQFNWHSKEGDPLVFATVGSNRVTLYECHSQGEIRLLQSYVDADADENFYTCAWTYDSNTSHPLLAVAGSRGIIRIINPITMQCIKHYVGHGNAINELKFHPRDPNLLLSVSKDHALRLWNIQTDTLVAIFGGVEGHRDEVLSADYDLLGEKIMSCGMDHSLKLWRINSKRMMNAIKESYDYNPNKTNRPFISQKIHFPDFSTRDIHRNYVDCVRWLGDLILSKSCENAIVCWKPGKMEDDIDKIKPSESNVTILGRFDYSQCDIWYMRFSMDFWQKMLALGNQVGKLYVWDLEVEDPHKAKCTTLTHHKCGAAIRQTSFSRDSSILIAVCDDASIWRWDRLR
Procedure, shortened: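 Serially diluted compound (12 points, 3-fold) incubated 20 min with 30 nM EED(1-441)-His and 15 nM biotin-H3K27Me3(19-33) peptide in 25 mM HEPES pH 8, 0.02% Tween-20, 0.5% BSA. Ni-chelate acceptor/streptavidin donor beads (10 μg/mL each) added, 1 h rt dark; 615 nm emission normalized to controls, dose-response fit for IC50.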

wild type PRC2 (wtPRC2) complex, sequence (O75530 whole entry): as above
wild type PRC2 (wtPRC2) complex, sequence (Q15910 whole entry partner): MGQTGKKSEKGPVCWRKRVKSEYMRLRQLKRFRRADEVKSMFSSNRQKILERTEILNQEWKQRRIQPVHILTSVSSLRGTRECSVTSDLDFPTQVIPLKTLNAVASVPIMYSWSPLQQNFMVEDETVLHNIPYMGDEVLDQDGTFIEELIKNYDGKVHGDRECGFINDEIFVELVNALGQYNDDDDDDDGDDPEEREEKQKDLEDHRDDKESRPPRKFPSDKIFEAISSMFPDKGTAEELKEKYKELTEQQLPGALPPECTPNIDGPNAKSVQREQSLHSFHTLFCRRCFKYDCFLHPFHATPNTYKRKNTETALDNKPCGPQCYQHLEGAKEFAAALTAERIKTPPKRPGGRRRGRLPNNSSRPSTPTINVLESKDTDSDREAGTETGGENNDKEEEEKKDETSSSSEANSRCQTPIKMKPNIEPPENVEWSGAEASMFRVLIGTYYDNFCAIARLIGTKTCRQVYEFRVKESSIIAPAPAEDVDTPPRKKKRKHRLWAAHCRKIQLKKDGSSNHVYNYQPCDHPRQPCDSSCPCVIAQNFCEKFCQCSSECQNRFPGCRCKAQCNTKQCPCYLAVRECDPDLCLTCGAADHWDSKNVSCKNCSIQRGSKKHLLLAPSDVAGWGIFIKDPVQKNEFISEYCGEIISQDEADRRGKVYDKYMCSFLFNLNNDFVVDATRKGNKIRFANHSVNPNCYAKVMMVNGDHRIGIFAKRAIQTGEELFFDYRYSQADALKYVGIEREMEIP
wild type PRC2 (wtPRC2) complex, sequence (Q15022 whole entry partner): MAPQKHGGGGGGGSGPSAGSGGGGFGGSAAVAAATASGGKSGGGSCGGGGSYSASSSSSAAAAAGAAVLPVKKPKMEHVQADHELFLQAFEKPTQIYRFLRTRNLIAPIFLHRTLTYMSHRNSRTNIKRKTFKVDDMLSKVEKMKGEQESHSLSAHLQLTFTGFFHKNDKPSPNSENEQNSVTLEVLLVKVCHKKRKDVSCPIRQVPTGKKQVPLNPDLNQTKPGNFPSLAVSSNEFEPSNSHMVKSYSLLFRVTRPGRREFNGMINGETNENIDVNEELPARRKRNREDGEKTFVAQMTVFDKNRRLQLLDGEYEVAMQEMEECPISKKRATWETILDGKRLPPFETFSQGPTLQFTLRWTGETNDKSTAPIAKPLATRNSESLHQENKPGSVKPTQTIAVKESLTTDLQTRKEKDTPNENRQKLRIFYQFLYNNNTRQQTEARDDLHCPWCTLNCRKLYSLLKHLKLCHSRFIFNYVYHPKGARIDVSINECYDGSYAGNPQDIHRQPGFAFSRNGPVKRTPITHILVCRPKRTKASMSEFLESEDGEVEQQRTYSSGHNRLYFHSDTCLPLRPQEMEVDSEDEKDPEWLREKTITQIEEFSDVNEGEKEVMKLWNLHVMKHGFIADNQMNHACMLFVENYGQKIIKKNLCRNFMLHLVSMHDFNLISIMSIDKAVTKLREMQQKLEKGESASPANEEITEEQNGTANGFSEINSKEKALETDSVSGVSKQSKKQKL
wild type PRC2 (wtPRC2) complex, sequence (Q09028 whole entry partner): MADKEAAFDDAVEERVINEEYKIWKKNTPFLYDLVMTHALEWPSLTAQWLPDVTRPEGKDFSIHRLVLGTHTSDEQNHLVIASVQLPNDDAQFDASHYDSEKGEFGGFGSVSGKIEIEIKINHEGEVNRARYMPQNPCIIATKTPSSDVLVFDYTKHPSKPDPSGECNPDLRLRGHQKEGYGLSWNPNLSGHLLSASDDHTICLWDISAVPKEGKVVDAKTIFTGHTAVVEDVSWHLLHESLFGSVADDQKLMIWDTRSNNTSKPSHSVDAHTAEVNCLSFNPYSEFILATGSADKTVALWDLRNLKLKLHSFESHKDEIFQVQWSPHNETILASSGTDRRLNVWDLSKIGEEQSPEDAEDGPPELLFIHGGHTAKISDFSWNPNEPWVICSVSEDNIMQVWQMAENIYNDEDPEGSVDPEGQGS
wild type PRC2 (wtPRC2) complex, sequence (Q6ZN18 whole entry partner): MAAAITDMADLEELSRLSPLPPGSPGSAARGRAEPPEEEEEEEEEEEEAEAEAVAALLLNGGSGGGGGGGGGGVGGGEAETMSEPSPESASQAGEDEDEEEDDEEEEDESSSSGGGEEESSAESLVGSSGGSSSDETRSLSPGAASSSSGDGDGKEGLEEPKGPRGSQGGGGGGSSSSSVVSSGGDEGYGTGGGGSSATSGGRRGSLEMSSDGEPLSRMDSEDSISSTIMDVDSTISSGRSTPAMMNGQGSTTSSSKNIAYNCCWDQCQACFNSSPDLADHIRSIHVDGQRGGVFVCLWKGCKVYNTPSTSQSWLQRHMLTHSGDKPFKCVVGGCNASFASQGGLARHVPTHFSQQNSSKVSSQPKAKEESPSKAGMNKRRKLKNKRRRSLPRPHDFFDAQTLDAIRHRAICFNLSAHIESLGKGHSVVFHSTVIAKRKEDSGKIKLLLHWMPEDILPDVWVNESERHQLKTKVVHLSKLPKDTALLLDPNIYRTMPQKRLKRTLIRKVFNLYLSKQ

Work on `COc1cc(F)cc(F)c1CNc1ccc(-c2cnccc2C)c2nncn12` [Example 253, N-(2,4-difluoro-6-methoxybenzyl)-8-(4-methylpyridin-3-yl)-[1,2,4]triazolo[4,3-a] pyridin-5-amine] yielded an IC50 [1] of 289 nM, an IC50 [2] of 59.2 nM and an IC50 [3] of 66.2 nM.
With `COc1cccc(F)c1CNc1ccc(-c2ccc(CNC(C)=O)nc2)c2nncn12` [Example 256, N-((5-(5-((2-fluoro-6-methoxybenzyl)amino)-[1,2,4]triazolo[4,3-a]pyridin-8-yl)pyridin-2-yl)methyl) acetamide] the IC50 [1] was 159 nM, the IC50 [2] was 10.4 nM and the IC50 [3] was 25.1 nM.
In the case of `COc1cccc(F)c1CNc1ccc(-c2cnccc2C(F)F)c2nncn12` [Example 258, 8-(4-(difluoromethyl)pyridin-3-yl)-N-(2-fluoro-6-methoxybenzyl)-[1,2,4] triazolo [4,3-a]pyridin-5-amine], the IC50 [1] is reported as 71.6 nM, the IC50 [2] is reported as 16.7 nM and the IC50 [3] is reported as 24.5 nM.
In the case of `COc1cccc(F)c1CNc1ccc(-c2cnc(N(C)C)nc2C)c2nncn12` [Example 260, 8-(2-(dimethylamino)-4-methylpyrimidin-5-yl)-N-(2-fluoro-6-methoxybenzyl)-[1,2,4]triazolo[4,3-a]pyridin-5-amine], the IC50 [1] is reported as 45.9 nM, the IC50 [2] is reported as 21.7 nM and the IC50 [3] is reported as 35.4 nM.
Work on `COc1cccc(F)c1CNc1ccc(-c2cccnc2C(F)F)c2nncn12` [Example 265, 8-(2-(difluoromethyl)pyridin-3-yl)-N-(2-fluoro-6-methoxybenzyl)-[1,2,4] triazolo[4,3-a]pyridin-5-amine] yielded an IC50 [1] of 6.3 nM, an IC50 [2] of 7.1 nM and an IC50 [3] of 14.1 nM.
In the case of `COc1cccc(F)c1CNc1ccc(-c2ccc(N3CCOCC3)nc2C)c2nncn12` [Example 266, N-(2-fluoro-6-methoxybenzyl)-8-(2-methyl-6-morpholinopyridin-3-yl)-[1,2,4]triazolo[4,3-a]pyridin-5-amine], the IC50 [1] is reported as 56.2 nM, the IC50 [2] is reported as 9.9 nM and the IC50 [3] is reported as 8.9 nM.
`COc1cccc(F)c1CNc1ccc(-c2cnc(Cl)cc2C)c2nncn12` [Example 267, 8-(6-chloro-4-methylpyridin-3-yl)-N-(2-fluoro-6-methoxybenzyl)-[1,2,4]triazolo[4,3-a] pyridin-5-amine] showed an IC50 [1] of 75.8 nM, an IC50 [2] of 14.6 nM and an IC50 [3] of 17 nM.
Work on `COc1cccc(F)c1CNc1ccc(-c2cnc(C)cc2C)c2nncn12` [Example 268, 8-(4,6-dimethylpyridin-3-yl)-N-(2-fluoro-6-methoxybenzyl)-[1,2,4]triazolo[4,3-a] pyridin-5-amine] yielded an IC50 [1] of 34 nM, an IC50 [2] of 21.4 nM and an IC50 [3] of 19.4 nM.
Work on `COc1cccc(F)c1CNc1ccc(-c2ccc(C(=O)N(C)C)nc2C)c2nncn12` [Example 269, 5-(5-((2-fluoro-6-methoxybenzyl)amino)-[1,2,4]triazolo[4,3-a]pyridin-8-yl)-N,N,6-trimethylpicolinamide] yielded an IC50 [1] of 60.1 nM, an IC50 [2] of 4.8 nM and an IC50 [3] of 8.9 nM.
For `COc1cccc(F)c1CNc1ccc(-c2cnc(C3CC3)cc2C)c2nncn12` [Example 270, 8-(6-cyclopropyl-4-methylpyridin-3-yl)-N-(2-fluoro-6-methoxybenzyl)-[1,2,4]triazolo[4,3-a]pyridin-5-amine], the IC50 [1] was 106 nM, the IC50 [2] was 42.3 nM and the IC50 [3] was 27.3 nM.
Compound `CCc1cc(S(C)(=O)=O)ccc1-c1ccc(NCc2c(F)cccc2OC)n2cnnc12` [Example 271, 8-(2-ethyl-4-(methylsulfonyl)phenyl)-N-(2-fluoro-6-methoxybenzyl)-[1,2,4]triazolo[4,3-a]pyridin-5-amine] has an IC50 [1] of 80.3 nM, an IC50 [2] of 30 nM and an IC50 [3] of 33.2 nM.
`CCc1ccncc1-c1ccc(NCc2c(F)cccc2OC)n2cnnc12` [Example 272, 8-(4-ethylpyridin-3-yl)-N-(2-fluoro-6-methoxybenzyl)-[1,2,4]triazolo[4,3-a]pyridin-5-amine] was tested, and the IC50 [1] was 57.5 nM, the IC50 [2] was 61.8 nM and the IC50 [3] was 34.7 nM.
With `COc1cccc(F)c1CNc1ccc(-c2cncnc2C(C)C)c2nncn12` [Example 273, N-(2-fluoro-6-methoxybenzyl)-8-(4-isopropylpyrimidin-5-yl)-[1,2,4] triazolo[4,3-a]pyridin-5-amine] the IC50 [1] was 99.7 nM, the IC50 [2] was 61.3 nM and the IC50 [3] was 69 nM.
In the case of `COc1cccc(F)c1CNc1ccc(-c2c(C)nn(CC(C)O)c2C)c2nncn12` (stereo not drawn) [Example 274, 1-(4-(5-((2-fluoro-6-methoxybenzyl)amino)-[1,2,4]triazolo[4,3-a]pyridin-8-yl)-3,5-dimethyl-1H-pyrazol-1-yl)propan-2-ol], the IC50 [1] is reported as 25.3 nM, the IC50 [2] is reported as 15.4 nM and the IC50 [3] is reported as 14.6 nM.
Compound `COc1cccc(F)c1CNc1ccc(-c2c(C)nn(C3CC3)c2C)c2nncn12` [Example 275, 8-(1-cyclopropyl-3,5-dimethyl-1H-pyrazol-4-yl)-N-(2-fluoro-6-methoxybenzyl)-[1,2,4]triazolo[4,3-a] pyridin-5-amine] has an IC50 [1] of 71.8 nM, an IC50 [2] of 21.6 nM and an IC50 [3] of 23.3 nM.
`COc1cccc(F)c1CNc1ccc(-c2ccnc(F)c2C)c2nncn12` [Example 276, 8-(2-fluoro-3-methylpyridin-4-yl)-N-(2-fluoro-6-methoxybenzyl)-[1,2,4]triazolo[4,3-a] pyridin-5-amine] showed an IC50 [1] of 50.5 nM, an IC50 [2] of 8 nM and an IC50 [3] of 13.9 nM.
`COc1cccc(F)c1CNc1ccc(-c2ccnc(C(F)F)c2C)c2nncn12` [Example 277, 8-(2-(difluoromethyl)-3-methylpyridin-4-yl)-N-(2-fluoro-6-methoxybenzyl)-[1,2,4]triazolo[4,3-a]pyridin-5-amine] gave an IC50 [1] of 32.2 nM, an IC50 [2] of 12 nM and an IC50 [3] of 14.2 nM.
`COc1cccc(F)c1CNc1ccc(-c2ccnc(CF)c2C)c2nncn12` [Example 278, N-(2-fluoro-6-methoxybenzyl)-8-(2-(fluoromethyl)-3-methylpyridin-4-yl)-[1,2,4] triazolo[4,3-a]pyridin-5-amine] showed an IC50 [1] of 27 nM, an IC50 [2] of 6.4 nM and an IC50 [3] of 11 nM.
With `COc1cccc(F)c1CNc1ccc(-c2cc(F)ncc2C)c2nncn12` [Example 279, 8-(2-fluoro-5-methylpyridin-4-yl)-N-(2-fluoro-6-methoxybenzyl)-[1,2,4] triazolo[4,3-a]pyridin-5-amine] the IC50 [1] was 75.1 nM, the IC50 [2] was 12.1 nM and the IC50 [3] was 15.8 nM.
`CCc1ncncc1-c1ccc(NCc2c(F)cccc2OC)n2cnnc12` [Example 280, 8-(4-ethylpyrimidin-5-yl)-N-(2-fluoro-6-methoxybenzyl)-[1,2,4]triazolo[4,3-a]pyridin-5-amine] was tested, and the IC50 [1] was 317 nM, the IC50 [2] was 11.8 nM and the IC50 [3] was 23.7 nM.
`COc1cccc(F)c1CNc1ccc(-c2cc(C(F)(F)F)ncc2C)c2nncn12` [Example 281, N-(2-fluoro-6-methoxybenzyl)-8-(5-methyl-2-(trifluoromethyl)pyridin-4-yl)-[1,2,4]triazolo[4,3-a] pyridin-5-amine] showed an IC50 [1] of 124 nM, an IC50 [2] of 16.9 nM and an IC50 [3] of 23 nM.
For `COc1cccc(F)c1CNc1ccc(-c2cn(C(C)C)nc2C)c2nncn12` [Example 282, N-(2-fluoro-6-methoxybenzyl)-8-(1-isopropyl-3-methyl-1H-pyrazol-4-yl)-[1,2,4]triazolo[4,3-a]pyridin-5-amine], the IC50 [1] was 15.7 nM, the IC50 [2] was 8.1 nM and the IC50 [3] was 10.7 nM.
For `CCc1ncccc1-c1ccc(NCc2c(F)cccc2OC)n2cnnc12` [Example 283, 8-(2-ethylpyridin-3-yl)-N-(2-fluoro-6-methoxybenzyl)-[1,2,4]triazolo[4,3-a]pyridin-5-amine], the IC50 [1] was 576 nM, the IC50 [2] was 62.1 nM and the IC50 [3] was 39.6 nM.
`COc1cccc(F)c1CNc1ccc(-c2cnc(C3CC3)nc2C)c2nncn12` [Example 284, 8-(2-cyclopropyl-4-methylpyrimidin-5-yl)-N-(2-fluoro-6-methoxybenzyl)-[1,2,4] triazolo[4,3-a]pyridin-5-amine] was tested, and the IC50 [1] was 44.4 nM, the IC50 [2] was 10.5 nM and the IC50 [3] was 9.6 nM.
`COc1cccc(F)c1CNc1ccc(-c2ccnc(C)c2C)c2nncn12` [Example 287, 8-(2,3-dimethylpyridin-4-yl)-N-(2-fluoro-6-methoxybenzyl)-[1,2,4]triazolo[4,3-a] pyridin-5-amine] showed an IC50 [1] of 38.6 nM, an IC50 [2] of 6.6 nM and an IC50 [3] of 10.1 nM.
In the case of `COc1cccc(F)c1CNc1ccc(-c2cc(C)nn2C)c2nncn12` [Example 288, 8-(1,3-dimethyl-1H-pyrazol-5-yl)-N-(2-fluoro-6-methoxybenzyl)-[1,2,4]triazolo[4,3-a] pyridin-5-amine], the IC50 [1] is reported as 23.4 nM, the IC50 [2] is reported as 6.3 nM and the IC50 [3] is reported as 12.7 nM.
In the case of `COc1cccc(F)c1CNc1ccc(-c2cnn(C(C)C)c2C)c2nncn12` [Example 289, N-(2-fluoro-6-methoxybenzyl)-8-(1-isopropyl-5-methyl-1H-pyrazol-4-yl)-[1,2,4] triazolo[4,3-a]pyridin-5-amine], the IC50 [1] is reported as 128 nM, the IC50 [2] is reported as 30.3 nM and the IC50 [3] is reported as 28.4 nM.
In the case of `COc1cccc(F)c1CNc1ccc(-c2cncnc2C(F)F)c2nncn12` [Example 290, 8-(4-(difluoromethyl)pyrimidin-5-yl)-N-(2-fluoro-6-methoxybenzyl)-[1,2,4] triazolo[4,3-a]pyridin-5-amine], the IC50 [1] is reported as 33.2 nM, the IC50 [2] is reported as 4 nM and the IC50 [3] is reported as 30.7 nM.
